Laboratory results taken from US20260183275A1, “SUBSTITUTED QUINOLONE COMPOUNDS USEFUL AS INHIBITORS OF TLR9” (Bristol-Myers Squibb Company, priority 2022, published 2026).

What was measured:
Format in all cases: cell-based
human TLR7 = target: T1, human TLR7 (Homo sapiens, UniProt Q9NYK1); test: TLR7 inhibition reporter assay (HEK-Blue cells, SEAP reporter); conditions: HEK-Blue cells overexpressing human TLR7; stimulated with gardiquimod 7.5 μM; SEAP read after 22 hour; dose range 0.05 nM-50 μM
T1 construct: host or cells: HEK-Blue cells
T1 sequence (Q9NYK1 27-1049): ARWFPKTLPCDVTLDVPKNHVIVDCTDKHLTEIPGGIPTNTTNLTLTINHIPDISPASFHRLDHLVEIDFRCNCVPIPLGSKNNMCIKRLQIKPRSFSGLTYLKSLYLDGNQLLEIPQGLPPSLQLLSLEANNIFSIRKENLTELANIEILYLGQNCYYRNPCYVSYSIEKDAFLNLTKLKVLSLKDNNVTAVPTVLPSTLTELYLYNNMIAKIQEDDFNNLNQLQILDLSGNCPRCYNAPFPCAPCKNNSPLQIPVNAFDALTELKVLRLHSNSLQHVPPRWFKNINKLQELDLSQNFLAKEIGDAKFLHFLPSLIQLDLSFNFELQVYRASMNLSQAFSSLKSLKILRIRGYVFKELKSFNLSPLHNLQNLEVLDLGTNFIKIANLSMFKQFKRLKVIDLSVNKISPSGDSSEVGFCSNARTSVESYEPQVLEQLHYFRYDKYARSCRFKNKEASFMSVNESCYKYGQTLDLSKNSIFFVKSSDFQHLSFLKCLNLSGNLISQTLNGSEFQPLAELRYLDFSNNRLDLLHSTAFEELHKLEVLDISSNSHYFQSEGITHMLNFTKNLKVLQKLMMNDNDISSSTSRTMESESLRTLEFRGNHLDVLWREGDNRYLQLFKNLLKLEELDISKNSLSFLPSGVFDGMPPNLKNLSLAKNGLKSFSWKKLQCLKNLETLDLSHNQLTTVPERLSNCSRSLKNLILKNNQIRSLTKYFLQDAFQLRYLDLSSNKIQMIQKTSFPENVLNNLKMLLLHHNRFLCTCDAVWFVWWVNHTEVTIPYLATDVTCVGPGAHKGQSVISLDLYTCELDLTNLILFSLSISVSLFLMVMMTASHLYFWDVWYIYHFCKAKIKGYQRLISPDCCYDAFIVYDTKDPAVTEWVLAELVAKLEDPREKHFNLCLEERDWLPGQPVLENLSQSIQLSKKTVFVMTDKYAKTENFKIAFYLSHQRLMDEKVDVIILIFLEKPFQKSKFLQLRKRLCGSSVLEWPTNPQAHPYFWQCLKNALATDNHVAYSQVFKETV
Summary of the method: (§1)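 HEK-Blue cells with NF-κB/AP-1-driven SEAP pre-treated 30 min with compounds (0.05 nM-50 μM), then stimulated with gardiquimod 7.5 μM (TLR7), R848 15.9 μM (TLR8) or ODN2006 5 nM (TLR9). SEAP read after 22 h at 37° C; % inhibition relative to agonist+DMSO and reference-inhibitor wells.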

human TLR8 = target: T2, human TLR8 (Homo sapiens, UniProt Q9NR97); test: TLR8 inhibition reporter assay (HEK-Blue cells, SEAP reporter); conditions: HEK-Blue cells overexpressing human TLR8; stimulated with R848 15.9 μM; SEAP read after 22 hour; dose range 0.05 nM-50 μM
T2 construct: host or cells: HEK-Blue cells
T2 sequence (Q9NR97 27-1041): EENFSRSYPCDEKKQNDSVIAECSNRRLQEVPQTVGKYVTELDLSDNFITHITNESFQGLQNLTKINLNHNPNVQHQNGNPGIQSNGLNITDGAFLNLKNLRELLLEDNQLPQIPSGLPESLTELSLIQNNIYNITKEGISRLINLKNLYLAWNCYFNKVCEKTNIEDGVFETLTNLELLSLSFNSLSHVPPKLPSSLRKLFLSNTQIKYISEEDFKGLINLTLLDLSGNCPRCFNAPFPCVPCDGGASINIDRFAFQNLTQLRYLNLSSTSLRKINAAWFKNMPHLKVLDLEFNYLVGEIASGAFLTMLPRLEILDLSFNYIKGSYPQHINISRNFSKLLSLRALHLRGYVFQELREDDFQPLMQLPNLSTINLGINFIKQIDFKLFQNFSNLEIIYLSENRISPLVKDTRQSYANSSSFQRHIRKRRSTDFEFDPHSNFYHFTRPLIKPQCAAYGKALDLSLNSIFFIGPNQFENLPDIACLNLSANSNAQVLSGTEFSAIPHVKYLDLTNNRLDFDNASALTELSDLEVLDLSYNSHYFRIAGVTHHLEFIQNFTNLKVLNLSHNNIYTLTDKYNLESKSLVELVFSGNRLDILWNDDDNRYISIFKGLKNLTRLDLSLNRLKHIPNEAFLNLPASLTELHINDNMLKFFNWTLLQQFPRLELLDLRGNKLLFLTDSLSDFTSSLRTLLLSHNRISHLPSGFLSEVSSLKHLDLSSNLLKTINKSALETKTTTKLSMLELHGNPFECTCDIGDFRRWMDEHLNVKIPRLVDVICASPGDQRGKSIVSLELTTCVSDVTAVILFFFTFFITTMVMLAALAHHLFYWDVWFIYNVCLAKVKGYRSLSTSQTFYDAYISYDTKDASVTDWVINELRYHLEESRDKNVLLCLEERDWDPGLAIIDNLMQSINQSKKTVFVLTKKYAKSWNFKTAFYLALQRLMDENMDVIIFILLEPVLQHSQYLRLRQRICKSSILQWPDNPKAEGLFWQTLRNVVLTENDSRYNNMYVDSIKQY
Summary of the method: as §1

human TLR9 = target: T3, human TLR9 (Homo sapiens, UniProt Q9NR96); test: TLR9 inhibition reporter assay (HEK-Blue cells, SEAP reporter); conditions: HEK-Blue cells overexpressing human TLR9; stimulated with ODN2006 5 nM; SEAP read after 22 hour; dose range 0.05 nM-50 μM
T3 construct: host or cells: HEK-Blue cells
T3 sequence (Q9NR96 26-1032): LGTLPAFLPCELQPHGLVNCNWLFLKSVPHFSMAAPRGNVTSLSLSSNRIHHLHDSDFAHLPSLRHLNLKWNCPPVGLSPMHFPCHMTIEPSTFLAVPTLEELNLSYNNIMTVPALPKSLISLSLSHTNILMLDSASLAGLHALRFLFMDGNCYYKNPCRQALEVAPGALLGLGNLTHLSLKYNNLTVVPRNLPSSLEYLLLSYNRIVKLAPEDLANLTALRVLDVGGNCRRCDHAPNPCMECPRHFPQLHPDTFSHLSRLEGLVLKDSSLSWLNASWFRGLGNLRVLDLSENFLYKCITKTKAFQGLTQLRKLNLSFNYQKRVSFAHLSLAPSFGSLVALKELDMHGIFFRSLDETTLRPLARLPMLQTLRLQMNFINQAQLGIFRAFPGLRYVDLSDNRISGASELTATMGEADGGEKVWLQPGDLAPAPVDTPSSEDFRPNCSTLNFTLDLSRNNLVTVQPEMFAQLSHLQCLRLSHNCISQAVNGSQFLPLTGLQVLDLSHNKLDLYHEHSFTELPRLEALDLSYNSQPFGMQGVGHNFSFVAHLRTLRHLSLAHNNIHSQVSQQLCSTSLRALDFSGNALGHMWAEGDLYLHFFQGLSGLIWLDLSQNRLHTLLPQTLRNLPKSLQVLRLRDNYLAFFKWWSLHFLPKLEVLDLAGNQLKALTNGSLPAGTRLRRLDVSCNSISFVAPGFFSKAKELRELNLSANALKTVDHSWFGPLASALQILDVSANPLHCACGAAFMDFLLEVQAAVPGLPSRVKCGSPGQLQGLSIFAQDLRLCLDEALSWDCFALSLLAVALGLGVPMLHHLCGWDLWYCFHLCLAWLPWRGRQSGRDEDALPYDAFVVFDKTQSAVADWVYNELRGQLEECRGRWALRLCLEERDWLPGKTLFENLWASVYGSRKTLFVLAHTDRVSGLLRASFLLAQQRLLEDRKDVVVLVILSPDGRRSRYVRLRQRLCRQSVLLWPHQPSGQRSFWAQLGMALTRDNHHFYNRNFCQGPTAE
Summary of the method: as §1

| Structure (SMILES) | IC50 (human TLR7) [nM] | IC50 (human TLR8) [nM] | IC50 (human TLR9) [nM] |
| --- | --- | --- | --- |
| Cn1c(=O)c(-c2ccccc2)cc2cc(-c3ccc(C4CCN(C5COC5)CC4)cc3)ccc21 [Example 100, 1-methyl-6-{4-[1-(oxetan-3-yl)piperidin-4-yl]phenyl}-3-phenyl-1,2-dihydroquinolin-2-one] | ≥ 50000 | 1900 | 2270 |
| CCc1c(-c2ccc(S(C)(=O)=O)cc2)c(=O)n(C)c2ccc(-c3ccc(C4CCN(C5COC5)CC4)cc3)cc12 [Example 101, 4-ethyl-3-(4-methanesulfonylphenyl)-1-methyl-6-{4-[1-(oxetan-3-yl)piperidin-4-yl]phenyl}-1,2-dihydroquinolin-2-one] | ≥ 50000 | 1340 | 2370 |
